Laboratory results published in patent US5108916A, “Process for stereoselectively hydrolyzing, transesterifying or esterifying with immobilized isozyme of lipase from Candida rugosa” (priority 1989, dated 1992).
Values joined by “and” are separate entries in the source; they are usually repeats but may differ in a detail not shown here. Identical values can stand only once. Like-named read-outs stand apart in the source and are kept apart here.

What was measured:
[1] = Conversion of ketoprofen esters in organic solvent/oleic acid media; assay type: biochemical
Description: To optimize the organic solvent used in the presence of oleic acid a variety of organic solvents were used, along with a variety of ketoprofen esters. In this experiment, 50 mg of ketoprofen esters were weighed into flasks, along with 1 ml of oleic acid and 9 ml of an organic solvent. The flasks were capped and incubated at 35° C., 250 rpm, for 10-26 hours before stopping the reaction by first adding 4 ml CHCl3 to solubilize the substrates and products, then filtering through a 0.2 um Gelman Nylaflo filter. Samples were then diluted in methanol and analyzed by HPLC as in Example 18. The experiment was also performed using 200 ul of oleic acid and 10ml buffer, which was acidified, extracted with CHCl3 and analyzed by HPLC as above.
One ml of oleic acid was added, as was 9 ml of buffer (100 mM (NH4)H2 PO4, pH 5.5) or organic solvent. Flasks were placed into a 35° C. incubator and shaken at 250 rpm for 13 hours. Reaction was stopped by adding 5 ml CHCl3 to solubilize the organic material and filtering the solutions using 0.2 um Gelman Nylaflo membranes to remove the enzyme. Samples were analyzed on an ODS-3 RAC column using CH3 OH:10 mM (NH4)H2PO4 (60:40) as eluant, flow rate 4 ml/min, and detection at 254 nm. %ee was determined by the resolution of diastereomeric amides on the above HPLC system, as per Example 18.

[2] = system: CSC-2; test: Effect of additives and solvents on hydrolysis of ketoprofen monoglyceride by CSC-2; assay type: biochemical, Candida rugosa; details: for % ee S-acid: 23 hr, 200 ul; for Isolated % ee (S-Acid): extraction procedure I for oleic acid and corn oil, II for the others; for % ee: as E102
Description: Hydrolysis of ketoprofen-monoglyceride (50mg) was carried out in various DMF-100mM (NH4)H2 PO4 buffer (pH 5.5) mixtures. In each flask a solution of ketoprofen monoglyceride (50mg) in DMF (200ul) was added. DMF was added followed by 100mM (NH4)H2 PO4 buffer. […] After 22 hours, 2%, 5%, and 10% DMF samples were acidified, extracted with CHCl3 (2×10ml) and analyzed. The other samples were analyzed directly as in Example 18. The acid produced decreases with increasing amount of DMF.
Small amounts of DMF were added to the reaction mixture to increase the solubility of KPG. In all cases 100mM ammonium phosphate buffer (pH 5.5) was used and 2% (v/v) detergents were added and the total volume was 10ml.
The buffer reaction (entry #2 in the table) contained enzyme in buffer (2 ml) and the buffer only (entry #1 in the table) reaction contained no enzyme.
The presence of a surfactant like Tween increases the solubility o lipophilic compounds in water. […] Tween 80 was added to make 1% and 2% solution (v/v). Bovine serum albumin (BSA) (10mg) was added to each of two flasks. A solution of 50mg of ketoprofen monoglyceride in 200ul DMF was added to each. After 20 hours at 250 rpm and 35° C. the reaction mixtures were acidified, extracted and analyzed by the usual HPLC procedure as in Example 18.
Various surfactants were used at 2% of the reaction volume to determine their effect on the enzymatic reaction involving the conversion of ketoprofen monoglyceride (KPG) to ketoprofen (KP). […] Flasks were covered with parafilm and incubated in a 35° C. water bath at 250 rpm, typically overnight. Reactions were stopped by acidification, extracted with CHCl3 (2×10 ml). The %acid and %ee were determined by the method of Example 18. It is to be noted that Hydrophile-Lipophile Balance (HLB) values have no apparent bearing on the ability of the surfactant to enhance the conversion of KPG to KP.
75 mg of KPG (in the absence of DMF) was individually weighed into 50 ml Erlenmeyer flasks. […] 9 ml of 100 mM (NH4)H2 PO4, pH 5.5 buffer was added, and the flasks were placed into a 35° C., 250 rpm water bath incubator for 20 hours. The reactions were acidified, extracted with CHCl3 and examined by HPLC as in Example 18. The %ee was determined as per Example 18.
Various amounts of oleic acid or its esters were added, and the reactions stopped at the times indicated, acidified, extracted with CHCl3 and analyzed as in Example 18.
An experiment was performed as in Example 41, but using 100, 200 and 500 ul of olive oil to determine if it would enhance the rate of conversion of KPG to KP. […] After 20 hours, all reactions were acidified, extracted with CHCl3 and analyzed by HPLC as in Example 18. The results are given below:
50 mg of KPG was weighed into Erlenmeyer flasks. […] Flasks were incubated at 35° C., 250 rpm for 23 hours. The reactions were stopped by acidification, extracted with CHCl3, and analyzed by HPLC as in Example 18. The additive is listed along with its percentage composition of glycerides of oleic acid.
To determine the problems associated with having oleic acid or oleate. esters in the reaction media, the following experiment was performed. […] Flasks were placed in a 35° C. incubator at 250 rpm, and the reactions were sampled by taking 200 ul aliquots at various time points. These aliquots were analyzed by HPLC (ODS-3 RAC column, CH3 OH: 10 mM (NH4)H2 PO4 (60:40) eluant, 4 ml/min, 254 nm detection) to determine the course of reaction. When approximately 40% acid was produced, the reactions were stopped by placing the flasks in the -70° C. freezer. Two extraction procedures were utilized to determine the best method of isolating S-Ketoprofen free of oleic acid. The first (listed as Extraction Procedure I in the following table) involved first making the solution basic (pH 10) with NaOH, then extracting with hexane, then CHCl3.

[3] = solvent/buffer 1:1 two phase, 16 hour reactions
[4] = solvent/buffer 1:1 two phase, 26 hours, buffer = 100
[5] = 200 ul DMF, b1067-b1069 18 hr, b1070-b1084 23 hr, amounts: 200 ul except tributyrin, dilinolein, trilinoein 100 ul, monostearin, distearin 25 ul, tristearin 28 ul, 0 = CSC-2 alone
[6] = 18 hr with 100 ul (b930-b936), 23 hr with 200 ul (b937-b944), None = CSC-2 alone
[7] = 5 g KPG, 50 mg CSC-2, 5 grams additive
[8] = surfactant 2% of reaction volume, 200 ul DMF, enzyme alone = 100
[9] = additive 100 ul, 75 mg KPG, no DMF, 20 hours
[10] = additive 200 ul, 75 mg KPG, 20 hours
[11] = additive 500 ul, 75 mg KPG, 20 hours

## CC(C(=O)OCCCl)c1cccc(C(=O)c2ccccc2)c1 (stereo not shown) [2-Chloroethyl Ester, 2-chloroethyl ester of ketoprofen]
[1]; Buffer 10 ml, OA 200 ul
  % ee: 96%
[1]; Buffer 10 ml, OA 200 ul, enzyme not named in Example 55
  % Acid: 18%
[1]; CHCl3 9 ml, OA 1 ml
  % Acid: 2%
  % ee: 3%
[1]; Hexane 9 ml, OA 1 ml, 10-26 hours
  % Acid: 7%
[1]; Hexane 9 ml, OA 1 ml, * stopped at 10 Hr
  % ee: 92%
[1]; Isooctane 9 ml, OA 1 ml
  % Acid: 18%
[1]; Isooctane 9 ml, OA 1 ml, * stopped at 10 Hr
  % ee: 97%
[1]; Toluene 9 ml, OA 1 ml
  % Acid: 1%
  % ee: < 1%

## CCC(=O)CC [3-Pentanone]
[2]; [3]
  Relative Rate: 0

## OCc1ccccc1 [Benzyl alcohol]
[2]; [3]
  Relative Rate: 0

## ClC(Cl)Cl [Chloroform]
[2]; pH 5.5, 960 min
  Relative Rate: 0

## O=C1CCCCC1 [Cyclohexanone]
[2]; [3]
  Relative Rate: 0

## ClCCl [Dichloromethane]
[2]; [3]
  Relative Rate: 0

## CCOC(C)=O [Ethyl acetate]
[2]; [3]
  Relative Rate: 0

## CCOCC [Ethyl ether]
[2]; pH 5.5, 960 min
  Relative Rate: 0

## CCc1ccccc1 [Ethylbenzene]
[2]
  EE of S-acid: 48%
[2]; [4]
  Relative Rate: 18

## ClCCCl [Ethylene dichloride]
[2]; [3]
  Relative Rate: 0

## CC(C)OC(C)C [Isopropyl ether]
[2]; solvent/buffer 1:1 two phase, 26 hours
  EE of S-acid: 69%
[2]; [4]
  Relative Rate: 53

## CCCCC/C=C\C/C=C\CCCCCCCC(=O)OCC [Linoleic acid ethyl ester]
[2]; [5]
  % Acid: 26%

## CCCCCCCC/C=C\CCCCCCCC(=O)OCC(O)CO (stereo not shown) [Monolein]
[2]; [6]
  % Acid: 43%
[2]; as E158
  Rate: 4

## CC(=O)OCC(COC(C)=O)OC(C)=O [Triacetin]
[2]; [5]
  % Acid: 12%

## CCCCC/C=C\C/C=C\CCCCCCCC(=O)OCC(O)COC(=O)CCCCCCC/C=C\C/C=C\CCCCC [dilinolein]
[2]; [5]
  % Acid: 20%

## CCCCCCCCCCCCCCCCCC(=O)OCC(O)COC(=O)CCCCCCCCCCCCCCCCC [distearin]
[2]; [5]
  % Acid: 30%

## CCCCC/C=C\C/C=C\CCCCCCCC(=O)OC [linoleic acid methyl ester]
[2]; [5]
  % Acid: 34%

## CCCCC/C=C\C/C=C\CCCCCCCC(=O)O [linoleic acid]
[2]; [5]
  % Acid: 21%

## CC/C=C\C/C=C\C/C=C\CCCCCCCC(=O)O [linolenic acid]
[2]; [5]
  % Acid: 13%

## CCCCCCCCCCCCCCCCCC(=O)OCC(O)CO (stereo not shown) [monostearin]
[2]; [5]
  % Acid: 31%

## CCCCO [n-Butanol]
[2]; [3]
  Relative Rate: 0

## CCCCCCO [n-Hexanol]
[2]; [3]
  Relative Rate: 0

## CCCCCCCCO [n-Octanol]
[2]; [3]
  Relative Rate: 0

## CCCCCCCC/C=C\CCCCCCCC(=O)OCC [oleic acid ethyl ester]
[2]; [6]
  % Acid: 52%
[2]; None = CSC-2 alone
  % ee S-acid: 96%
[2]; as E158
  Rate: 4

## CCCCCCCC/C=C\CCCCCCCC(=O)OC [oleic acid methyl ester]
[2]; [6]
  % Acid: 51%
[2]; None = CSC-2 alone
  % ee S-acid: 97%
[2]; as E158
  Rate: 3

## CCCCCCCC/C=C\CCCCCCCC(=O)O [oleic acid]
[2]; [7]
  Final % Acid: 39%
  Rate: 1.2 µmol/h/mg
[2]; [6]
  % Acid: 47%
[2]; None = CSC-2 alone
  % ee S-acid: 96%
[2]; as E158
  Rate: 3
[2]
  Isolated % ee (S-Acid): 88%

## CCCC(=O)OCC(COC(=O)CCC)OC(=O)CCC [tributyrin]
[2]; [5]
  % Acid: 3%

## CCCCC/C=C\C/C=C\CCCCCCCC(=O)OCC(COC(=O)CCCCCCC/C=C\C/C=C\CCCCC)OC(=O)CCCCCCC/C=C\C/C=C\CCCCC [trilinoein]
[2]; [5]
  % Acid: 20%

## CCCCCCCC/C=C\CCCCCCCC(=O)OCC(COC(=O)CCCCCCC/C=C\CCCCCCCC)OC(=O)CCCCCCC/C=C\CCCCCCCC [triolein]
[2]; [6]
  % Acid: 38%
[2]; as E158
  Rate: 3

## CCCCCCCCCCCCCCCCCC(=O)OCC(COC(=O)CCCCCCCCCCCCCCCCC)OC(=O)CCCCCCCCCCCCCCCCC [tristearin]
[2]; [5]
  % Acid: 25%

## Diolein
[2]; [6]
  % Acid: 42%
[2]; as E158
  Rate: 4

## POE-2 oleyl ether [Brij 92]
[2]; [8]
  Relative Rate: 27

## POE-2 stearyl ether [Brij 72]
[2]; [8]
  Relative Rate: 106

## POE-10 oleyl ether [Brij 96]
[2]; [8]
  Relative Rate: 27

## POE-10 stearyl ether [Brij 76]
[2]; [8]
  Relative Rate: 18

## POE-20 oleyl ether [Brij 99]
[2]; [8]
  Relative Rate: 15

## POE-20 stearyl ether [Brij 78]
[2]; [8]
  Relative Rate: 14

## POE-23 lauryl ether [Brij 35]
[2]; [8]
  Relative Rate: 26

## Span 20
[2]; [8]
  Relative Rate: 75

## Span 40
[2]; [8]
  Relative Rate: 99

## Span 60
[2]; [8]
  Relative Rate: 108

## Span 80
[2]; [9]
  % Acid: 27%
[2]; additive 200 ul
  S-acid (% ee): 97
[2]; [10]
  % Acid: 28%
[2]; [11]
  % Acid: 27%
[2]; [8]
  Relative Rate: 160

## Span 85
[2]; [7]
  Final % Acid: 28.9%
  Rate: 0.87 µmol/h/mg
[2]; [9]
  % Acid: 28%
[2]; additive 200 ul
  S-acid (% ee): 96
[2]; [10]
  % Acid: 33%
[2]; [11]
  % Acid: 34%
[2]
  % ee: 93% and 96% and 95% and 97%
  Isolated % ee (S-Acid): 95.1%
[2]; [8]
  Relative Rate: 181

## Tween 20
[2]; [8]
  Relative Rate: 39

## Tween 40
[2]; [8]
  Relative Rate: 29

## Tween 60
[2]; [8]
  Relative Rate: 23

## Tween 61
[2]; [8]
  Relative Rate: 92

## Tween 65
[2]; [8]
  Relative Rate: 39

## Tween 80
[2]; [7]
  Final % Acid: 34.9%
  Rate: 0.46 µmol/h/mg
[2]; 20 hours, b844=no Tween no BSA, b846=1% Tween and BSA, b848=2% Tween and BSA, b850=2% Tween no BSA, 1200 min
  Relative Rate: 114 and 142 and 118
[2]; [9]
  % Acid: 12%
[2]; additive 200 ul
  S-acid (% ee): 96
[2]; [10]
  % Acid: 22%
[2]; [11]
  % Acid: 18%
[2]
  % ee: 96% and 92% and 86% and 97% and 93%
  Isolated % ee (S-Acid): 94.3%
[2]; as E149
  ee of S-acid: 95% and 96%
[2]; [8]
  Relative Rate: 136

## Tween 85
[2]; [8]
  Relative Rate: 27

## sorbitan sesquioleate [Arlacel 83]
[2]; [9]
  % Acid: 30%
[2]; additive 200 ul
  S-acid (% ee): 99
[2]; [10]
  % Acid: 30%
[2]; [11]
  % Acid: 29%
[2]; [8]
  Relative Rate: 172
